Assay results reported in PubChem BioAssay (NCI).
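Cultured in 96-well plates, cells were exposed to test compound for 48 hours across five concentrations. GI50 = concentration required for 50% inhibition of growth. TGI is the concentration that stops growth completely.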

Tests used:
Assay in all cases: inhibition of tumour cell growth, NCI panel, 48 h
786-0 renal = test system: 786-0 renal
A498 renal = test system: A498 renal
A549 NSCLC = test system: A549 NSCLC
ACHN renal = test system: ACHN renal
BT-549 breast = test system: BT-549 breast
CAKI-1 renal = test system: CAKI-1 renal
COLO 205 colon = test system: COLO 205 colon
DU-145 prostate = test system: DU-145 prostate
EKVX NSCLC = test system: EKVX NSCLC
HCC-2998 colon = test system: HCC-2998 colon
HCT-116 colon = test system: HCT-116 colon
HCT-15 colon = test system: HCT-15 colon
HL-60(TB) leukemia = test system: HL-60(TB) leukemia
HOP-62 NSCLC = test system: HOP-62 NSCLC
HOP-92 NSCLC = test system: HOP-92 NSCLC
HS 578T breast = test system: HS 578T breast
HT29 colon = test system: HT29 colon
IGROV1 ovarian = test system: IGROV1 ovarian
K-562 leukemia = test system: K-562 leukemia
KM12 colon = test system: KM12 colon
LOX IMVI melanoma = test system: LOX IMVI melanoma
M14 melanoma = test system: M14 melanoma
MALME-3M melanoma = test system: MALME-3M melanoma
MCF7 breast = test system: MCF7 breast
MDA-MB-231 breast = test system: MDA-MB-231 breast
MDA-MB-435 = test system: MDA-MB-435
MDA-MB-468 breast = test system: MDA-MB-468 breast
MOLT-4 leukemia = test system: MOLT-4 leukemia
NCI-H226 lung = test system: NCI-H226 lung
NCI-H23 lung = test system: NCI-H23 lung
NCI-H460 lung = test system: NCI-H460 lung
NCI-H522 lung = test system: NCI-H522 lung
OVCAR-3 ovarian = test system: OVCAR-3 ovarian
OVCAR-4 ovarian = test system: OVCAR-4 ovarian
OVCAR-5 ovarian = test system: OVCAR-5 ovarian
OVCAR-8 ovarian = test system: OVCAR-8 ovarian
PC-3 prostate = test system: PC-3 prostate
RXF 393 renal = test system: RXF 393 renal
SF-268 CNS = test system: SF-268 CNS
SF-295 CNS = test system: SF-295 CNS
SF-539 CNS = test system: SF-539 CNS
SK-MEL-28 melanoma = test system: SK-MEL-28 melanoma
SK-MEL-5 melanoma = test system: SK-MEL-5 melanoma
SK-OV-3 ovarian = test system: SK-OV-3 ovarian
SN12C renal = test system: SN12C renal
SNB-19 CNS = test system: SNB-19 CNS
SNB-75 CNS = test system: SNB-75 CNS
SW-620 colon = test system: SW-620 colon
T-47D breast = test system: T-47D breast
TK-10 renal = test system: TK-10 renal
U251 CNS = test system: U251 CNS
UACC-257 melanoma = test system: UACC-257 melanoma
UACC-62 melanoma = test system: UACC-62 melanoma
UO-31 renal = test system: UO-31 renal

## Cc1cc(C(F)(F)F)ccc1C(=O)Nc1sc2c(c1C#N)CCC(=O)C2
786-0 renal
  GI50: 3.51 µM
  TGI: > 100 µM
A498 renal
  GI50: 23.2 µM
  TGI: 93.5 µM
A549 NSCLC
  GI50: 3.42 µM
  TGI: 23.1 µM
ACHN renal
  GI50: 1090 nM
  TGI: 2570 nM
BT-549 breast
  GI50: 591 nM
  TGI: 3.04 µM
CAKI-1 renal
  GI50: 1320 nM
  TGI: 2950 nM
COLO 205 colon
  GI50: 2030 nM
  TGI: 3.68 µM
DU-145 prostate
  GI50: 3.57 µM
  TGI: > 100 µM
EKVX NSCLC
  GI50: 2630 nM
  TGI: 12 µM
HCC-2998 colon
  GI50: 2730 nM
  TGI: 9.21 µM
HCT-116 colon
  GI50: 411 nM
  TGI: 10.3 µM
HCT-15 colon
  GI50: 552 nM
  TGI: 2360 nM
HL-60(TB) leukemia
  GI50: 448 nM
  TGI: 13.7 µM
HOP-62 NSCLC
  GI50: 3.1 µM
  TGI: > 100 µM
HOP-92 NSCLC
  GI50: 957 nM
  TGI: 2620 nM
HS 578T breast
  GI50: 2240 nM
  TGI: 22.6 µM
HT29 colon
  GI50: 973 nM
  TGI: 3.43 µM
IGROV1 ovarian
  GI50: 3.42 µM
  TGI: 13.5 µM
K-562 leukemia
  GI50: 240 nM
  TGI: > 100 µM
KM12 colon
  GI50: 1080 nM
  TGI: 5 µM
LOX IMVI melanoma
  GI50: 1060 nM
  TGI: 3.73 µM
M14 melanoma
  GI50: 1390 nM
  TGI: 3.61 µM
MALME-3M melanoma
  GI50: 1450 nM
  TGI: 3.01 µM
MCF7 breast
  GI50: 1780 nM
  TGI: 11.3 µM
MDA-MB-231 breast
  GI50: 1560 nM
  TGI: 3.39 µM
MDA-MB-435
  GI50: 1880 nM
  TGI: 4.34 µM
MDA-MB-468 breast
  GI50: 1540 nM
  TGI: 5.04 µM
MOLT-4 leukemia
  GI50: 619 nM
  TGI: 12.3 µM
NCI-H226 lung
  GI50: 2830 nM
  TGI: 18.5 µM
NCI-H23 lung
  GI50: 1710 nM
  TGI: 6.5 µM
NCI-H460 lung
  GI50: 3.16 µM
  TGI: 69.6 µM
NCI-H522 lung
  GI50: 288 nM
  TGI: 1010 nM
OVCAR-3 ovarian
  GI50: 1400 nM
  TGI: 3.24 µM
OVCAR-4 ovarian
  GI50: 1250 nM
  TGI: 2940 nM
OVCAR-5 ovarian
  GI50: 2020 nM
  TGI: 5.94 µM
OVCAR-8 ovarian
  GI50: 1800 nM
  TGI: 27.3 µM
PC-3 prostate
  GI50: 333 nM
  TGI: 3.28 µM
RXF 393 renal
  GI50: 659 nM
  TGI: 3.09 µM
SF-268 CNS
  GI50: 2830 nM
  TGI: 20.5 µM
SF-295 CNS
  GI50: 2010 nM
  TGI: 5.91 µM
SF-539 CNS
  GI50: 496 nM
  TGI: 1900 nM
SK-MEL-28 melanoma
  GI50: 1240 nM
  TGI: 2620 nM
SK-MEL-5 melanoma
  GI50: 1540 nM
  TGI: 2960 nM
SK-OV-3 ovarian
  GI50: 9.21 µM
  TGI: 28.5 µM
SN12C renal
  GI50: 1640 nM
  TGI: 10.9 µM
SNB-19 CNS
  GI50: 3.91 µM
  TGI: > 100 µM
SNB-75 CNS
  GI50: 1030 nM
  TGI: 6.74 µM
SW-620 colon
  GI50: 504 nM
  TGI: 2570 nM
T-47D breast
  GI50: 453 nM
  TGI: 2520 nM
TK-10 renal
  GI50: 1590 nM
  TGI: 24.9 µM
U251 CNS
  GI50: 2250 nM
  TGI: 13.2 µM
UACC-257 melanoma
  GI50: 1900 nM
  TGI: 5.28 µM
UACC-62 melanoma
  GI50: 1220 nM
  TGI: 2670 nM
UO-31 renal
  GI50: 1120 nM
  TGI: 2380 nM
